Assay results from patent US20230255974A1, “USE OF THYROMIMETICS FOR THE TREATMENT OF CANCER” (THE UNIVERSITY OF VERMONT, priority 2020, published 2023).

Assays:
[1] = system: SW1736 cells (SW-EV, SW-TRβ); assay: Soft agar colony formation assay; type: cell-based, human; conditions: 10^−8 M T3, 14 days
Experimental: Soft Agar Colony Formation Assay. Soft agar colony forming assays were used to assess anchorage-independent growth. A layer 0.50% agar in thyroid media (as described) was solidified in 6-well cell culture plates. SW-EV or SW-TRβ cells were plated in a second layer of 0.25% agar in thyroid media. 200 uL of thyroid media was maintained at the top of each well to prevent the agar from drying. […] Colonies were allowed to grow for 14 days. Live SW-EV and SW-TRβ colonies were detected via GFP expression using a ChemiDoc XRS+ (Bio-Rad Laboratories). Colonies were then counted with ImageJ using the Colony Counter plugin.

[2] = system: SW1736 cells (SW-EV, SW-TRβ); assay: RNA-seq gene expression in SW-EV and SW-TRβ; type: cell-based, human
Experimental: RNA-seq Library Construction and Quality Control. 80% confluent monolayers of SW-EV and SW-TRβ cells were hormone starved for 24 hours in phenol red free RPMI with charcoal-stripped fetal bovine serum. 10^−8M T3 was added and incubated for 24 hours prior to sample collection. Total RNA was extracted and purified using RNeasy Plus Kit (Qiagen) according to manufacturer's protocol. Purity of the total RNA samples was assessed via BioAnalyzer (Agilent) and samples with a RIN score >7 were used for library construction. rRNA was depleted using 1 μg of total RNA with the RiboErase kit (KAPA Biosystems). Strand-specific Illumina cDNA libraries were prepared using the KAPA Stranded RNA-Seq library preparation kit with 10 cycles of PCR (KAPA Biosystems). Library quality was assessed by BioAnalyzer (Agilent) to ensure an average library size of 300 bp and the absence of excess adaptors in each sample. RNA-Seq libraries were pooled and sequenced on the Illumina HiSeq 1500 with 50 bp single-end reads. Quality scores across sequenced reads were assessed using FASTQC. […] For alignment and transcript assembly, the sequencing reads were mapped to hg38 using STAR. Sorted reads were counted using HTSeq and differential expression analysis was performed using DESeq2.

N[C@@H](Cc1cc(I)c(Oc2ccc(O)c(I)c2)c(I)c1)C(=O)O [T3, (2S)-2-amino-3-[4-(4-hydroxy-3-iodophenoxy)-3,5-diiodophenyl]propanoic acid]
anchorage-independent colony growth ([1]; SW-EV): reduced anchorage-independent colony growth
anchorage-independent colony growth ([1]; SW-TRβ): nearly ablated colony growth
expression of epithelial marker CDH1 ([2]; SW1736-TRβ, T3 treated): increased expression
expression of mesenchymal marker VIM ([2]; SW1736-TRβ, T3 treated): decreased
expression of cluster 1 genes in the ILK signaling IPA pathway ([2]; SW-EV and SW-TRβ, T3): repressed
thyroid differentiation markers ([2]; SW-TRβ, T3 treated): significantly induced
thyroid differentiation score (TDS) ([2]; SW-TRβ, T3 treated): significantly higher TDS
expression of thyroid-specific cancer stem cell genes ALDH, POU5F1, CD44, FUT4, PROM1 ([2]; TRβ overexpression and T3, RNA-seq): significantly reduced expression of the thyroid-specific cancer stem cell genes
